Reference: the NIST ThermoML archive (doi:10.1021/je700260f)

Settings: Liquid, Vibrating tube method

FC(C(F)(F)F)C(F)(F)F [1,1,1,2,3,3,3-heptafluoropropane]
Settings	mass density [kg/m3]
333.13 K, 4181 kPa	1264.9
333.13 K, 4207 kPa	1265.2
333.13 K, 4241 kPa	1265.8
333.13 K, 4278 kPa	1266.2
333.13 K, 4309 kPa	1266.6
333.13 K, 4338 kPa	1266.8
333.13 K, 4364 kPa	1267.4
333.13 K, 4398 kPa	1267.7
333.13 K, 4432 kPa	1268.2
333.13 K, 4463 kPa	1268.6
333.13 K, 4762 kPa	1272.2
333.13 K, 4802 kPa	1272.8
333.13 K, 4834 kPa	1273.3
333.13 K, 4861 kPa	1273.7
333.13 K, 4893 kPa	1274.1
333.13 K, 4916 kPa	1274.2
333.13 K, 4947 kPa	1274.6
333.13 K, 4988 kPa	1275.2
333.13 K, 5015 kPa	1275.4
333.13 K, 5055 kPa	1275.9
333.13 K, 5086 kPa	1276.3
333.13 K, 5123 kPa	1276.9
333.13 K, 5155 kPa	1277.2
333.13 K, 5191 kPa	1277.7
333.13 K, 5224 kPa	1277.9
333.13 K, 5261 kPa	1278.4
333.13 K, 5294 kPa	1278.8
333.13 K, 5325 kPa	1279.1
333.13 K, 5365 kPa	1279.6
333.13 K, 5432 kPa	1280.3
333.13 K, 5541 kPa	1281.7
333.13 K, 5612 kPa	1282.4
333.13 K, 5635 kPa	1282.8
333.13 K, 5673 kPa	1283.2
333.13 K, 25651 kPa	1419.9
333.13 K, 25679 kPa	1419.9
333.13 K, 25788 kPa	1420.5
333.13 K, 27375 kPa	1427.5
333.13 K, 27408 kPa	1427.7
333.13 K, 27436 kPa	1427.8
333.13 K, 33941 kPa	1454.3
333.13 K, 33977 kPa	1454.4
333.13 K, 34019 kPa	1454.5
333.13 K, 34054 kPa	1454.8
333.13 K, 34100 kPa	1454.9
333.13 K, 34136 kPa	1455
333.14 K, 1234 kPa	1218
333.14 K, 1254 kPa	1218.5
333.14 K, 1281 kPa	1218.9
333.14 K, 1309 kPa	1219.4
333.14 K, 1332 kPa	1220.1
333.14 K, 1355 kPa	1220.5
333.14 K, 1386 kPa	1221.1
333.14 K, 1403 kPa	1221.3
333.14 K, 1427 kPa	1221.8
333.14 K, 1448 kPa	1222.1
333.14 K, 1472 kPa	1222.6
333.14 K, 1496 kPa	1223.2
333.14 K, 1520 kPa	1223.5
333.14 K, 1540 kPa	1223.9
333.14 K, 1568 kPa	1224.4
333.14 K, 1593 kPa	1224.9
333.14 K, 1614 kPa	1225.4
333.14 K, 2164 kPa	1235.1
333.14 K, 2189 kPa	1235.5
333.14 K, 2224 kPa	1236.1
333.14 K, 2254 kPa	1236.5
333.14 K, 2277 kPa	1237
333.14 K, 2308 kPa	1237.5
333.14 K, 2330 kPa	1237.9
333.14 K, 2385 kPa	1238.7
333.14 K, 2413 kPa	1239.2
333.14 K, 2434 kPa	1239.4
333.14 K, 2460 kPa	1240
333.14 K, 2489 kPa	1240.4
333.14 K, 2516 kPa	1240.8
333.14 K, 2546 kPa	1241.2
333.14 K, 2576 kPa	1241.8
333.14 K, 2634 kPa	1242.8
333.14 K, 2657 kPa	1243.2
333.14 K, 2684 kPa	1243.6
333.14 K, 2716 kPa	1244.1
333.14 K, 2981 kPa	1248.1
333.14 K, 3011 kPa	1248.6
333.14 K, 3038 kPa	1249
333.14 K, 3071 kPa	1249.5
333.14 K, 3107 kPa	1249.9
333.14 K, 3140 kPa	1250.4
333.14 K, 3169 kPa	1251
333.14 K, 3205 kPa	1251.4
333.14 K, 4501 kPa	1269.1
333.14 K, 4531 kPa	1269.4
333.14 K, 4566 kPa	1269.9
333.14 K, 4601 kPa	1270.4
333.14 K, 4623 kPa	1270.6
333.14 K, 4661 kPa	1271
333.14 K, 4697 kPa	1271.7
333.14 K, 4727 kPa	1272
333.14 K, 5403 kPa	1280.1
333.14 K, 5469 kPa	1280.8
333.14 K, 5503 kPa	1281.2
333.14 K, 5584 kPa	1282.2
333.14 K, 5709 kPa	1283.6
333.14 K, 5750 kPa	1283.9
333.14 K, 5782 kPa	1284.4
333.14 K, 5815 kPa	1284.8
333.14 K, 5845 kPa	1285.1
333.14 K, 5879 kPa	1285.5
333.14 K, 5908 kPa	1285.8
333.14 K, 5941 kPa	1286.1
333.14 K, 5970 kPa	1286.4
333.14 K, 6009 kPa	1287
333.14 K, 6052 kPa	1287.3
333.14 K, 6090 kPa	1287.8
333.14 K, 6133 kPa	1288.1
333.14 K, 6158 kPa	1288.5
333.14 K, 6191 kPa	1289
333.14 K, 6216 kPa	1289.2
333.14 K, 6250 kPa	1289.5
333.14 K, 6472 kPa	1291.9
333.14 K, 6498 kPa	1292.3
333.14 K, 6533 kPa	1292.6
333.14 K, 6555 kPa	1292.7
333.14 K, 6594 kPa	1293.3
333.14 K, 6633 kPa	1293.6
333.14 K, 6668 kPa	1293.9
333.14 K, 6702 kPa	1294.2
333.14 K, 6728 kPa	1294.7
333.14 K, 6758 kPa	1295
333.14 K, 6922 kPa	1296.7
333.14 K, 7050 kPa	1297.8
333.14 K, 7081 kPa	1298.2
333.14 K, 7125 kPa	1298.6
333.14 K, 7151 kPa	1299
333.14 K, 7182 kPa	1299.2
333.14 K, 7209 kPa	1299.5
333.14 K, 7243 kPa	1299.9
333.14 K, 7278 kPa	1300.2
333.14 K, 7311 kPa	1300.4
333.14 K, 7341 kPa	1300.7
333.14 K, 7368 kPa	1301.1
333.14 K, 7402 kPa	1301.4
333.14 K, 7424 kPa	1301.7
333.14 K, 7460 kPa	1302.1
333.14 K, 7496 kPa	1302.4
333.14 K, 7527 kPa	1302.6
333.14 K, 7559 kPa	1303
333.14 K, 7590 kPa	1303.3
333.14 K, 7632 kPa	1303.7
333.14 K, 7670 kPa	1304.1
333.14 K, 7702 kPa	1304.3
333.14 K, 7735 kPa	1304.7
333.14 K, 7767 kPa	1305.1
333.14 K, 7795 kPa	1305.2
333.14 K, 7826 kPa	1305.5
333.14 K, 7864 kPa	1305.9
333.14 K, 7893 kPa	1306.1
333.14 K, 7930 kPa	1306.5
333.14 K, 7957 kPa	1306.8
333.14 K, 7996 kPa	1307.2
333.14 K, 8029 kPa	1307.4
333.14 K, 8057 kPa	1307.7
333.14 K, 8080 kPa	1307.9
333.14 K, 25452 kPa	1419
333.14 K, 25486 kPa	1419
333.14 K, 25524 kPa	1419.3
333.14 K, 25553 kPa	1419.5
333.14 K, 25586 kPa	1419.6
333.14 K, 25615 kPa	1419.7
333.14 K, 25704 kPa	1419.9
333.14 K, 25735 kPa	1420.1
333.14 K, 25762 kPa	1420.4
333.14 K, 25814 kPa	1420.7
333.14 K, 25854 kPa	1420.9
333.14 K, 25874 kPa	1420.9
333.14 K, 25917 kPa	1421.1
333.14 K, 25950 kPa	1421.3
333.14 K, 25976 kPa	1421.4
333.14 K, 26005 kPa	1421.5
333.14 K, 26036 kPa	1421.6
333.14 K, 26069 kPa	1421.8
333.14 K, 26295 kPa	1422.8
333.14 K, 26327 kPa	1422.9
333.14 K, 26353 kPa	1423.1
333.14 K, 26386 kPa	1423.1
333.14 K, 26411 kPa	1423.3
333.14 K, 26444 kPa	1423.3
333.14 K, 26469 kPa	1423.6
333.14 K, 26504 kPa	1423.7
333.14 K, 27209 kPa	1426.8
333.14 K, 27239 kPa	1427
333.14 K, 27284 kPa	1427.1
333.14 K, 27317 kPa	1427.3
333.14 K, 27346 kPa	1427.5
333.14 K, 27465 kPa	1428
333.14 K, 27494 kPa	1428
333.14 K, 27531 kPa	1428.3
333.14 K, 27561 kPa	1428.5
333.14 K, 27595 kPa	1428.4
333.14 K, 28013 kPa	1430.3
333.14 K, 28047 kPa	1430.5
333.14 K, 28080 kPa	1430.6
333.14 K, 28109 kPa	1430.9
333.14 K, 28138 kPa	1430.9
333.14 K, 28167 kPa	1431
333.14 K, 28201 kPa	1431.2
